Source: patent US9278978B2, “6-Alkynyl Pyridine” (Boehringer Ingelheim International GmbH, priority 2013, dated 2016)

biological target: cIAP1 BIR3 (Homo sapiens (Human), UniProt Q13490); assay: cIAP1 BIR3 binding assay (DELFIA), BIR3 domain-SMAC peptide interaction; conditions: not given
Description: XIAP BIR3 and cIAP1 BIR3 Binding Assays (DELFIA)
Peptide […]-Lys(Biotin), representing the N-terminus of mature human SMAC(SMAC peptide), was used as interaction partner in the protein-peptide interaction assay.
BIR3 domains (10 nM) were incubated with SMAC peptide (10 nM) in assay buffer (50 mM Tris, 120 mM NaCl, 0.1% BSA, 1 mM DTT, 0.05% TritonX100) for one hour at room temperature in the presence of inhibitory compounds. The assay mixture was transferred to a strepatvidin coated plate and incubated for one hour at room temperature to allow binding of the biotinylated peptide and associated BIR3 domains to the plate. After several washing steps Eu labeled anti-GST antibody (e.g. Perkin Elmer DELFIA Eu-N1-antiGST AD0250) was added to detect BIR3 domain-SMAC peptide interactions according to Perkin Elmer's instructions. […] Time resolved Europium fluorescence was measured in a Wallac Victor using Standard assay settings.
DELFIA assay results were plotted against compound concentrations and Software GraphPad Prizm was used to calculate half maximal inhibitory concentrations (IC50 values).

| IC50 | Structure (SMILES) |
| --- | --- |
| 1 nM | CNC(C)C(=O)Nc1cc(-c2ncnc3ncn(C)c23)cc(C#Cc2ccc3c(ccc(=O)n3C)c2)n1 (stereo not drawn) [Example 8, N-{6-[2-(1-methyl-2-oxo-1,2-dihydroquinolin-6-yl)ethynyl]-4-(7-methyl-7H-purin-6-yl)pyridin-2-yl}-2-(methylamino)propanamide] |
| 2 nM | CNC(C)C(=O)Nc1cc(-c2ncnc3ncn(C)c23)cc(C#Cc2ccc(-n3cnc(C)c3)cc2)n1 (stereo not drawn) [Example 9, N-(6-{2-[4-(4-methyl-1H-imidazol-1-yl)phenyl]ethynyl}-4-(7-methyl-7H-purin-6-yl)pyridin-2-yl)-2-(methylamino)propanamide] |
| 2 nM | CNC(C)C(=O)Nc1cc(-c2ncnc3ncn(C)c23)cc(C#Cc2ccccc2)n1 (stereo not drawn) [Example 7, N-[4-(7-methyl-7H-purin-6-yl)-6-(2-phenylethynyl)pyridin-2-yl]-2-(methylamino)propanamide] |

same assay, conditions: BIR3 domain 10 nM, SMAC peptide 10 nM; (S)-isomer (examples 1-34, 38-43) or racemate (examples 35-37); read-out: cIAP1 BIR-3 IC50

| IC50 | Structure (SMILES) |
| --- | --- |
| 1 nM | CNC(C)C(=O)Nc1cc(-c2ncnc3c(C)nn(C)c23)cc(C#Cc2ccc3nc(C)ccc3c2)n1 (stereo not drawn) [Example 38, N-(4-{1,3-dimethyl-1H-pyrazolo[4,3-d]pyrimidin-7-yl}-6-[2-(2-methylquinolin-6-yl)ethynyl]pyridin-2-yl)-2-(methylamino)propanamide] |
| 1 nM | CNC(C)C(=O)Nc1cc(-c2ncnc3c(C)nn(C)c23)cc(C#Cc2cc(C)nc(C)c2)n1 (stereo not drawn) [Example 39, N-(4-{1,3-dimethyl-1H-pyrazolo[4,3-d]pyrimidin-7-yl}-6-[2-(2,6-dimethyl-pyridin-4-yl)ethynyl]pyridin-2-yl)-2-(methylamino)-propanamide] |
| 1 nM | CNC(C)C(=O)Nc1cc(-c2nc(C)nc3c(C)nn(C)c23)cc(C#Cc2ccc3c(ccc(=O)n3C)c2)n1 (stereo not drawn) [Example 15, N-{6-[2-(1-methyl-2-oxo-1,2-dihydroquinolin-6-yl)ethynyl]-4-{trimethyl-1H-pyrazolo[4,3-d]pyrimidin-7-yl}pyridin-2-yl}-2-(methylamino)propanamide] |
| 12 nM | CNC(C)C(=O)Nc1cc(-c2cccc3cnn(C)c23)c(Cl)c(C#Cc2ccc3c(C)nccc3c2)n1 (stereo not drawn) [Example 24, N-[5-chloro-4-(1-methyl-1H-indazol-7-yl)-6-[2-(1-methylisoquinolin-6-yl)ethynyl]pyridin-2-yl]-2-(methylamino)propanamide] |
| 127 nM | CNC(C)C(=O)Nc1cc(-c2cncc(F)c2)cc(C#Cc2ccccc2)n1 (stereo not drawn) [Example 29, N-[4-(5-fluoropyridin-3-yl)-6-(2-phenylethynyl)pyridin-2-yl]-2-(methylamino)propanamide] |
| 250 nM | CNC(C)C(=O)Nc1cc(-c2cccnc2)cc(C#Cc2ccccc2)n1 (stereo not drawn) [Example 34, 2-(methylamino)-N-[6-(2-phenyethynyl)-4-(pyridin-3-yl)pyridin-2-yl]propanamide] |
